Measured values from US20250034136A1 (Nimbus Wadjet, Inc., priority 2023, published 2025).
Like-named read-outs stand apart in the source and are kept apart here.

Columns and labels:
[1] = target: WRN (BV08), human Werner helicase (Uniprot Q14191, amino acids 517-1235 with L1074F point mutation) (Homo sapiens (Human), UniProt Q14191, L1074F); assay: WRN (BV08) ADP-Glo assay; assay type: biochemical; conditions: class symbols A-E, read-out: ADP-Glo_hWRN_IC50
[2] = test system: p21 induction in HCT116 cells; assay: p21 induction in HCT116 cells; assay type: cell-based; conditions: HCT116 cells, 24 h compound incubation, read-out: P21_EC50
Method in brief: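 EC50 from non-linear curve fit of p21 immunofluorescence (800 nm), with GAPDH (700 nm) read alongside. DMSO and a reference WRN inhibitor served as low and high controls. Cells (2,000/well) got 11 compound concentrations in duplicate for 24 h at 37 °C.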

Chain of WRN (BV08), human Werner helicase (Uniprot Q14191, amino acids 517-1235 with L1074F point mutation) (Q14191 other isoform, or with tags, fused parts or gaps L1074F (already in the parent)): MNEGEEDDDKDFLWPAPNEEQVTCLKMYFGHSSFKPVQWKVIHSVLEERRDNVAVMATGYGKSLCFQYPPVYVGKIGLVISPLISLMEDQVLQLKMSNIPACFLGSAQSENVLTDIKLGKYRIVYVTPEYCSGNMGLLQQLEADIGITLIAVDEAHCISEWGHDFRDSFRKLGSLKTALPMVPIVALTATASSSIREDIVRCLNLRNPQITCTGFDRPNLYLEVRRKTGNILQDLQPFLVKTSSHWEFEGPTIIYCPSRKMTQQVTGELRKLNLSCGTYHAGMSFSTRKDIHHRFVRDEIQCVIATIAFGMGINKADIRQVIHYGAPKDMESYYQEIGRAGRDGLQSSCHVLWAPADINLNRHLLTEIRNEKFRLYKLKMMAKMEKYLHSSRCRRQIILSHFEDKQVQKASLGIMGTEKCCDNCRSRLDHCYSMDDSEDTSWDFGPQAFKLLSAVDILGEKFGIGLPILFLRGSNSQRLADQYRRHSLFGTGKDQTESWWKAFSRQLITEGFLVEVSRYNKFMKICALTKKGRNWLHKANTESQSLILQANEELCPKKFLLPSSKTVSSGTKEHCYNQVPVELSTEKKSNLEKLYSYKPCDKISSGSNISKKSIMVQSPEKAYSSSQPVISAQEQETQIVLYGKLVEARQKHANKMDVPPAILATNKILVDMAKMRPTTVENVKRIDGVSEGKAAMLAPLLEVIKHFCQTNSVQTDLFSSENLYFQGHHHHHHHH

| IC50 [1] | EC50 ([2]; Homo sapiens, HCT-116, 24 h) | EC50 [2] | SMILES |
| --- | --- | --- | --- |
| 5 to 50 nM | < 500 nM |  | CCc1c(N2CCN(C(=O)c3ncnc(C)c3O)[C@H]3CC[C@@H]32)c(=O)c2nc(N(C)C)cnc2n1CC(=O)Nc1ccc(C(F)(F)F)nc1Cl [I-222, N-[2-chloro-6-(trifluoromethyl)pyridin-3-yl]-2-[2-(dimethylamino)-6-ethyl-7-[(1S,6S)-5-(5-hydroxy-6-methylpyrimidine-4-carbonyl)-2,5-diazabicyclo[4.2.0]octan-2-yl]-8-oxo-5H,8H-pyrido[2,3-b]pyrazin-5-yl]acetamide] |
| 5 to 50 nM | 500 to 2000 nM |  | CCc1c(N2CCN(C(=O)c3ncnc(C)c3O)CC2)c(=O)c2nc(C3CCC3)cnc2n1CC(=O)Nc1ccc(C(F)(F)F)cc1Cl [I-223, N-[2-chloro-4-(trifluoromethyl)phenyl]-2-{2-cyclobutyl-6-ethyl-7-[4-(5-hydroxy-6-methylpyrimidine-4-carbonyl)piperazin-1-yl]-8-oxo-5H,8H-pyrido[2,3-b]pyrazin-5-yl} acetamide] |
| 5 to 50 nM | 2000 to 5000 nM |  | CCc1c(N2CCN(C(=O)c3ncnc(C)c3O)CC2)c(=O)c2nc(N3CCCC34CC4)cnc2n1CC(=O)Nc1ccc(C(F)(F)F)cc1Cl [I-224, 2-(2-{4-azaspiro[2.4]heptan-4-yl}-6-ethyl-7-[4-(5-hydroxy-6-methylpyrimidine-4-carbonyl)piperazin-1-yl]-8-oxo-5H,8H-pyrido[2,3-b]pyrazin-5-yl)-N-[2-chloro-4-(trifluoromethyl)phenyl]acetamide] |
| 5 to 50 nM | < 500 nM |  | CCc1c(N2CCN(C(=O)c3c(OC)ncc(C)c3O)C[C@@H]2C)c(=O)c2nc(C3CC3)cnc2n1CC(=O)Nc1ccc(C(F)(F)F)cc1Cl [I-225, N-[2-chloro-4-(trifluoromethyl)phenyl]-2-{2-cyclopropyl-6-ethyl-7-[(2S)-4-(4-hydroxy-2-methoxy-5-methylpyridine-3-carbonyl)-2-methylpiperazin-1-yl]-8-oxo-5H,8H-pyrido[2,3-b]pyrazin-5-yl}acetamide] |
| ≤ 5 nM | < 500 nM |  | [2H]C([2H])([2H])Nc1cnc2c(n1)c(=O)c(N1CCN(C(=O)c3ncnc(C)c3O)[C@H]3CC[C@@H]31)c(CC)n2CC(=O)Nc1ccc(C(F)(F)F)cc1Cl [I-226, N-[2-chloro-4-(trifluoromethyl)phenyl]-2-{6-ethyl-7-[(1S,6S)-5-(5-hydroxy-6-methylpyrimidine-4-carbonyl)-2,5-diazabicyclo[4.2.0]octan-2-yl]-2-[(methyl-d3)amino]-8-oxo-5H,8H-pyrido[2,3-b]pyrazin-5-yl}acetamide] |
| ≤ 5 nM |  | < 500 nM | CCc1c(N2CCN(C(=O)c3ncnc(C)c3O)[C@H]3CC[C@@H]32)c(=O)c2nc(NC)cnc2n1CC(=O)Nc1ccc(C(F)(F)F)cc1Cl [I-227, N-[2-chloro-4-(trifluoromethyl)phenyl]-2-{6-ethyl-7-[(1S,6S)-5-(5-hydroxy-6-methylpyrimidine-4-carbonyl)-2,5-diazabicyclo[4.2.0]octan-2-yl]-2-(methylamino)-8-oxo-5H,8H-pyrido[2,3-b]pyrazin-5-yl}acetamide] |
| 5 to 50 nM | < 500 nM |  | CCc1c(N2CCN(C(=O)c3c(OC)ncc(C)c3O)C[C@@H]2C)c(=O)c2nc(N(C)C)cnc2n1CC(=O)Nc1ccc(C(F)(F)F)cc1Cl [I-228, N-[2-chloro-4-(trifluoromethyl)phenyl]-2-[2-(dimethylamino)-6-ethyl-7-[(2S)-4-(4-hydroxy-2-methoxy-5-methylpyridine-3-carbonyl)-2-methylpiperazin-1-yl]-8-oxo-5H,8H-pyrido[2,3-b]pyrazin-5-yl]acetamide] |
| 5 to 50 nM | 500 to 2000 nM |  | CCc1c(C23CCN(C(=O)c4ncnc(C)c4O)CC2C3)c(=O)c2nc(N(C)C)cnc2n1CC(=O)Nc1ccc(C(F)(F)F)cc1Cl (stereo not shown) [I-229, N-[2-chloro-4-(trifluoromethyl)phenyl]-2-[2-(dimethylamino)-6-ethyl-7-[3-(5-hydroxy-6-methylpyrimidine-4-carbonyl)-3-azabicyclo[4.1.0]heptan-6-yl]-8-oxo-5H,8H-pyrido[2,3-b]pyrazin-5-yl]acetamide] |
